Among the data in patent US20250074890A1, “CYANOPYRIDINE AND CYANOPYRIMIDINE BCL6 DEGRADERS” (DANA-FARBER CANCER INSTITUTE, INC., priority 2021, published 2025) are DC50 values, retold here.

The target in the test is T1, BCL6 (Homo sapiens, UniProt P41182).
T1 construct: Endogenous BCL6 was tagged with the 11-amino acid SmBiT through CRISPR/Cas9 gene editing; endogenous in cells; host or cells: Su-DHL-4 (CRISPR/Cas9 knock-in, single cell clone)
Description: HiBiT cellular degradation assay in Su-DHL-4 cells. To be noted: concentration to reach 50% degradation of endogenous SmBiT-tagged BCL6, 24 hours of compound treatment. In kind it is cell-based. How it is done:
DC50 (concentration to reach 50% degradation) values were determined from a cellular degradation assay (HiBiT, Promega™) in Su-DHL-4 cells (Table 1). Endogenous BCL6 was tagged with the 11-amino acid SmBiT through CRISPR/Cas9 gene editing and single cell clone selection. After 24 hours of compound treatment, cells were lysed and incubated with LgBiT protein to reconstitute intact nanoluciferase. Substrate was then added and relative luciferase units were measured. Degradation levels for each treatment were taken as a percentage compared to the control, 100% DMSO (Prism).

What is called DC50 is the midpoint of the concentration-degradation curve. A low value points to degradation at low concentration. In turn, `C[C@@H]1C[C@H](N)CN(c2nc(Nc3ccc4c(c3)c3c(c(=O)n4C)OCC(F)(F)[C@H](C4CC4)N3)c(Cl)cc2C#N)C1` [Compound 25, 2-((3S,5R)-3-Amino-5-methylpiperidin-1-yl)-5-chloro-6-(((S)-2-cyclopropyl-3,3-difluoro-7-methyl-6-oxo-1,2,3,4,6,7-hexahydro-[1,4]oxazepino[2,3-c]quinolin-10-yl)amino)nicotinonitrile] had a half-maximal degradation concentration (DC50) of over 400 nM.

The compound `C[C@H]1C[C@@H](N)CN(c2nc(Nc3ccc4c(c3)n(CCC(C)(C)O)c(=O)n4C)c(Cl)cc2C#N)C1` [Compound 35, 2-((3R,5S)-3-Amino-5-methylpiperidin-1-yl)-5-chloro-6-((3-(3-hydroxy-3-methylbutyl)-1-methyl-2-oxo-2,3-dihydro-1H-benzo[d]imidazol-5-yl)amino)nicotinonitrile] registered a 50% degradation concentration (DC50) of over 400 nM.

Consider `C[C@@H]1C[C@H](N)CN(c2nc(Nc3ccc4c(c3)n(CCC(C)(C)O)c(=O)n4C)c(Cl)cc2C#N)C1` [Compound 36, 2-((3S,5R)-3-amino-5-methylpiperidin-1-yl)-5-chloro-6-((3-(3-hydroxy-3-methylbutyl)-1-methyl-2-oxo-2,3-dihydro-1H-benzo[d]imidazol-5-yl)amino)nicotinonitrile], for which the DC50 was over 400 nM.

The compound `C[C@@H]1CN(c2nc(Nc3ccc4c(c3)n(CCC(C)(C)O)c(=O)n4CC3COC3)c(Cl)cc2C#N)C[C@H](N)C1(F)F` [Compound 37, 2-((3S,5R)-3-Amino-4,4-difluoro-5-methylpiperidin-1-yl)-5-chloro-6-((3-(3-hydroxy-3-methylbutyl)-1-(oxetan-3-ylmethyl)-2-oxo-2,3-dihydro-1H-benzo[d]imidazol-5-yl)amino)nicotinonitrile] came in with a half-maximal degradation concentration (DC50) of 62 nM. That is a double-digit nanomolar value. Then `C[C@H]1CN(c2nc(Nc3ccc4c(c3)n(CCC(C)(C)O)c(=O)n4CC3COC3)c(Cl)cc2C#N)C[C@@H](N)C1(F)F` [Compound 38, 2-((3R,5S)-3-Amino-4,4-difluoro-5-methylpiperidin-1-yl)-5-chloro-6-((3-(3-hydroxy-3-methylbutyl)-1-(oxetan-3-ylmethyl)-2-oxo-2,3-dihydro-1H-benzo[d]imidazol-5-yl)amino)nicotinonitrile], with over 400 nM.

`CNC(=O)COc1cc2cc(Nc3nc(N4C[C@@H](C)C[C@@H](N)C4)c(C#N)cc3Cl)ccc2n(C)c1=O` [Compound 39, 2-((6-((6-((3R,5S)-3-Amino-5-methylpiperidin-1-yl)-3-chloro-5-cyanopyridin-2-yl)amino)-1-methyl-2-oxo-1,2-dihydroquinolin-3-yl)oxy)-N-methylacetamide] came in with a 50% degradation concentration (DC50) of 41 nM. In the case of `CNC(=O)COc1cc2cc(Nc3nc(N4C[C@H](C)C[C@H](N)C4)c(C#N)cc3Cl)ccc2n(C)c1=O` [Compound 40, 2-((6-((6-((3S,5R)-3-Amino-5-methylpiperidin-1-yl)-3-chloro-5-cyanopyridin-2-yl)amino)-1-methyl-2-oxo-1,2-dihydroquinolin-3-yl)oxy)-N-methylacetamide] it was over 400 nM.

Consider `CNC(=O)COc1cc2cc(Nc3nc(N4C[C@@H](C)C(F)(F)[C@@H](N)C4)c(C#N)cc3Cl)ccc2n(CC2COC2)c1=O` [Compound 41, 2-((6-((6-((3S,5R)-3-Amino-4,4-difluoro-5-methylpiperidin-1-yl)-3-chloro-5-cyanopyridin-2-yl)amino)-1-(oxetan-3-ylmethyl)-2-oxo-1,2-dihydroquinolin-3-yl)oxy)-N-methylacetamide], for which the half-maximal degradation concentration (DC50) stood at 10 nM. Then `CNC(=O)COc1cc2cc(Nc3nc(N4C[C@@H](C)C(F)(F)[C@@H](N)C4)c(C#N)cc3Cl)ccc2n(C)c1=O` [Compound 43, 2-((6-((6-((3S,5R)-3-Amino-4,4-difluoro-5-methylpiperidin-1-yl)-3-chloro-5-cyanopyridin-2-yl)amino)-1-methyl-2-oxo-1,2-dihydroquinolin-3-yl)oxy)-N-methylacetamide], with 10 nM.
